This passage reports IC50 results from BindingDB's records for patent US20260014125 (Haihe Biopharma, 2026).

The structures appear in SMILES notation.

By IC50 is commonly meant the concentration at which inhibition is half-maximal. A low value points to higher potency.

Chain of S-adenosylmethionine synthase isoform type-2 (P31153 whole entry, canonical isoform): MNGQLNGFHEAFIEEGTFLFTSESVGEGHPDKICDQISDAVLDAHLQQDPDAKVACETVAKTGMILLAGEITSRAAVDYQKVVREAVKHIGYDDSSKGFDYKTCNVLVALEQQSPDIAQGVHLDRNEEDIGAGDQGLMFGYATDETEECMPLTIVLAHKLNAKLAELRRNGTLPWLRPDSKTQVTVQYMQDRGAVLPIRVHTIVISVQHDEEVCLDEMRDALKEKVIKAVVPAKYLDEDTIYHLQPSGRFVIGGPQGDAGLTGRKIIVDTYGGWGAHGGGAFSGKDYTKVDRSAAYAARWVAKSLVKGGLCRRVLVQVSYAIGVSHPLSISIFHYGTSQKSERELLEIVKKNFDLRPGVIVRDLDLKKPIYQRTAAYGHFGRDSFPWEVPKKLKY

The target of the test is S-adenosylmethionine synthase isoform type-2 (Homo sapiens, UniProt P31153). As to the kind of experiment: Enzymatic Activity of MAT2A. The protocol:
1. 1×Assaybuffer (buffer composition: Tris, KCl, MgCl2, BSA, Brij35, and EDTA; the solvent was ultrapure water) was prepared. MAT2A his-tag enzyme solution (containing 1.3 μL of MAT2A enzyme and 998.7 μL of 1×Assaybuffer per 1000 μL) and substrate mixed solution (containing 5 μL of ATP, 1.3 μL of L-methionine, and 993.7 μL of 1×Assaybuffer per 1000 μL) were prepared using 1×AssayBuffer.2. Preparation of compound concentration gradient: The test compound was tested with a starting concentration of 10 μM, and 10 […] concentrations were set according to a 3-fold dilution. Specifically, firstly, the compound was diluted into 10 different concentrations of series solutions in a 384 well plate (with final detection concentrations of 10, 3.33, 1.11, 0.37, 0.123, 0.041, 0.0137, 0.0046, 0.0015, and 0.0005 μM), and then 250 nL of the above series solutions was transferred to the 384 well reaction plate using an ultrasonic pipetting system Echo550 for later use. 250 nL of 100% DMSO was added into a negative control well and a positive control well, respectively. Double well test.3. 15 μL of MAT2A his-tag enzyme solution was added into both the compound well and the positive control well; and 15 μL of 1×Assaybuffer was added into the negative control well.4. The 384 well plate reaction plate was centrifuged at 1000 rpm for 60 seconds, shaken, mixed well, and incubated for 15 minutes. 10 μL of substrate mixed solution was added into each experimental well of the 384 well reaction plate to initiate the reaction.5. The 384 well reaction plate was centrifuged at 1000 rpm for 60 seconds, shaken, mixed well, and incubated for 150 minutes.6. 50 μL of enzyme reaction termination solution Biomol was added into all experimental wells of the 384 well reaction plate to terminate the reaction, centrifuged at 1000 rpm for 60 seconds, and incubated for 15 minutes. OD620 was Data analysis: the inhibition rate (%) of the compound was calculated and fitted to obtain the IC50 of the tested compound.
The compound `CCOc1c(-c2ccc(OC(F)F)cc2)c(=O)n(-c2ccc3nn(CCOC)cc3c2)c2[nH]ncc12` [US20260014125, Compound 21] had an IC50 of 8.3 nM.

For the compound `CCOc1c(-c2ccc(OC(F)F)cc2)c(=O)n(-c2ccn3nccc3c2)c2[nH]ncc12` [US20260014125, Compound 23], half-maximal inhibition (IC50) was put at 9.8 nM.

In turn, `CCOc1c(-c2ccc(OC(F)F)cc2)c(=O)n(-c2ccc3nccn3c2)c2[nH]ncc12` [US20260014125, Compound 24] registered an IC50 of 15.9 nM.

Turning to `CCOc1c(-c2ccc(OC(F)F)cc2)c(=O)n(-c2ccc3ncnn3c2)c2[nH]ncc12` [US20260014125, Compound 25], the IC50 is 14 nM.
